Tests used:
[1] = Microsomal stability assay; type: in vitro ADME; conditions: 1 mg/ml human hepatic microsomes, 37° C., half-life by LC-MS/MS; yes = stability ≥15 minutes
Procedure: The metabolic stability of some test compounds was determined in hepatic human and mouse microsomes. The compound was incubated with 1 mg/ml human or mouse hepatic microsomes at 37° C. with continuous shaking. Aliquots were removed at various time points between 5 minutes and 2 hours and acetonitrile was added to quench the reactions and precipitate the proteins. Samples were then centrifuged through 0.45 μm filter plates and half-lives were determined by LC-MS/MS.

[2] = system: PK1 neuroblastoma cells exposed to TPrP; experiment: cells; type: cell-based; conditions: Neuroblastoma cell, 96 h, read-out: TPrP EC50

Row | SMILES | Stabilty in human microsomes ≥ 15 minutes [1] | EC50 [2]
1 | CS(=O)(=O)c1ccc(Nc2nc(-c3ccncc3)c(CO)s2)cc1 [SR-33795, (2-((4-(Methylsulfonyl)phenyl)amino)-4-(pyridin-4-yl)thiazol-5-yl)methanol] | yes | 0.35 µM
2 | COc1cc(-c2nc(Nc3ccc(S(C)(=O)=O)cc3)sc2CO)cc(OC)n1 [SR-33796, (4-(2,6-Dimethoxypyridin-4-yl)-2-((4-(methylsulfonyl)phenyl)amino)thiazol-5-yl)methanol] | yes | 0.45 µM
3 | COc1cc(-c2nc(Nc3ccc(S(N)(=O)=O)cc3)sc2CO)cc(OC)n1 [SR-33797, 4-((4-(2,6-Dimethoxypyridin-4-yl)-5-(hydroxymethyl)thiazol-2-yl)amino)benzenesulfonamide] | yes | 0.045 µM
4 | Cc1cc(-c2nc(Nc3ccc(S(N)(=O)=O)cc3)sc2CO)cc(C)n1 [SR-33798, 4-((4-(2,6-Dimethylpyridin-4-yl)-5-(hydroxymethyl)thiazol-2-yl)amino)benzenesulfonamide] | yes | 0.02 µM
5 | Cc1cc(-c2nc(Nc3ccc(S(C)(=O)=O)cc3)sc2CO)ccn1 [SR-33799, (4-(2-Methylpyridin-4-yl)-2-((4-(methylsulfonyl)phenyl)amino)thiazol-5-yl)methanol] | yes | 0.06 µM
6 | COc1cc(-c2nc(Nc3ccc(S(C)(=O)=O)c(Cl)c3)sc2CO)cc(OC)n1 [SR-33800, (2-((3-Chloro-4-(methylsulfonyl)phenyl)amino)-4-(2,6-dimethoxypyridin-4-yl)thiazol-5-yl)methanol] | yes | 0.055 µM
7 | Cc1cc(-c2nc(Nc3ccc(S(=O)(=O)O)cc3)sc2CO)cc(C)n1 [SR-33801, 4-((4-(2,6-Dimethylpyridin-4-yl)-5-(hydroxymethyl)thiazol-2-yl)amino)benzenesulfonic acid] | yes | 0.04 µM
8 | O=S(=O)(O)c1ccc(Nc2nc(-c3ccncc3)c(CO)s2)cc1 [SR-33878, 4-((5-(Hydroxymethyl)-4-(pyridin-4-yl)thiazol-2-yl)amino)benzenesulfonic acid] | yes | 0.3 µM
9 | CC(C)NS(=O)(=O)c1ccc(-c2csc(Nc3ccc(S(N)(=O)=O)cc3)n2)cc1 [SR-34770, N-isopropyl-4-(2-((4-sulfamoylphenyl)amino)thiazol-4-yl)benzenesulfonamide] | yes | 0.3 µM
10 | NS(=O)(=O)c1ccc(Nc2nc(-c3ccc(S(=O)(=O)Nc4ccccc4)cc3)c(CO)s2)cc1 [SR-34773, 4-(5-(Hydroxymethyl)-2-((4-sulfamoylphenyl)amino)thiazol-4-yl)-N-phenylbenzenesulfonamide] | yes | 0.3 µM
11 | CC(C)NS(=O)(=O)c1ccc(-c2nc(Nc3ccc(S(N)(=O)=O)cc3)sc2CO)cc1 [SR-34776, 4-(5-(Hydroxymethyl)-2-((4-sulfamoylphenyl)amino)thiazol-4-yl)-N-isopropylbenzenesulfonamide] | yes | 0.1 µM
12 | Cc1cc(-c2nc(Nc3ccc(S(C)(=O)=O)cc3)sc2CCl)ccn1 [SR-34893, 5-(Chloromethyl)-4-(2-methylpyridin-4-yl)-N-(4-(methylsulfonyl)phenyl)thiazol-2-amine] | yes | 0.4 µM
13 | CNS(=O)(=O)c1ccc(-c2csc(Nc3ccc(S(C)(=O)=O)cc3)n2)cc1 [SR-34964, N-methyl-4-(2-((4-(methylsulfonyl)phenyl)amino)thiazol-4-yl)benzenesulfonamide] | yes | 0.105 µM
14 | Cc1cc(-c2csc(Nc3ccc(S(C)(=O)=O)c(F)c3)n2)cc(C)n1 [SR-34974, 4-(2,6-Dimethylpyridin-4-yl)-N-(3-fluoro-4-(methylsulfonyl)phenyl)thiazol-2-amine] | yes | 0.1 µM
15 | CS(=O)(=O)c1ccc(Nc2nc(-c3ccnc(Cl)c3)cs2)cc1C(F)(F)F [SR-34982, 4-(2-Chloropyridin-4-yl)-N-(4-(methylsulfonyl)-3-(trifluoromethyl)phenyl)thiazol-2-amine] | yes | 0.12 µM
16 | Cc1cc(-c2csc(Nc3ccc(S(C)(=O)=O)c(C(F)(F)F)c3)n2)cc(C)n1 [SR-34984, 4-(2,6-Dimethylpyridin-4-yl)-N-(4-(methylsulfonyl)-3-(trifluoromethyl)phenyl)thiazol-2-amine] | yes | 0.06 µM
17 | COc1cc(-c2csc(Nc3ccc(S(C)(=O)=O)c(Cl)c3)n2)ccn1 [SR-34993, N-(3-Chloro-4-(methylsulfonyl)phenyl)-4-(2-methoxypyridin-4-yl)thiazol-2-amine] | yes | 0.125 µM
18 | CNS(=O)(=O)c1ccc(-c2csc(Nc3ccc(C(F)(F)F)cc3)n2)cc1 [SR-35726, N-methyl-4-(2-((4-(trifluoromethyl)phenyl)amino)thiazol-4-yl)benzenesulfonamide] | yes | 0.48 µM
19 | CNS(=O)(=O)c1ccc(-c2csc(Nc3ccc(CS(C)(=O)=O)cc3)n2)cc1 [SR-35727, N-methyl-4-(2-((4-((methylsulfonyl)methyl)phenyl)amino)thiazol-4-yl)benzenesulfonamide] | yes | 0.018 µM
20 | CS(=O)(=O)c1ccc(-c2csc(Nc3ccc(S(N)(=O)=O)cc3)n2)cc1 [SR-35729, 4-((4-(4-(Methylsulfonyl)phenyl)thiazol-2-yl)amino)benzenesulfonamide] | yes | 0.0016 µM
21 | CS(=O)(=O)c1ccc(Nc2nc(-c3ccc(S(C)(=O)=O)cc3)cs2)cc1 [SR-35730, N,4-bis(4-(methylsulfonyl)phenyl)thiazol-2-amine] | yes | 0.004 µM
22 | Cc1ccc(-c2csc(Nc3ccc(S(C)(=O)=O)cc3)n2)cc1 [SR-35731, N-(4-(methylsulfonyl)phenyl)-4-(p-tolyl)thiazol-2-amine] | yes | > 0.5 µM
23 | CS(=O)(=O)c1ccc(Nc2nc(-c3ccc(C(F)(F)F)cc3)cs2)cc1 [SR-35733, N-(4-(Methylsulfonyl)phenyl)-4-(4-(trifluoromethyl)phenyl)thiazol-2-amine] | yes | > 0.5 µM
24 | CNS(=O)(=O)c1ccc(-c2csc(Nc3ccc(S(C)(=O)=O)c(F)c3)n2)cc1 [SR-35735, 4-(2-((3-Fluoro-4-(methylsulfonyl)phenyl)amino)thiazol-4-yl)-N-methylbenzenesulfonamide] | yes | 0.006 µM
25 | CNS(=O)(=O)c1ccc(-c2csc(Nc3ccc(S(C)(=O)=O)c(Cl)c3)n2)cc1 [SR-35736, 4-(2-((3-Chloro-4-(methylsulfonyl)phenyl)amino)thiazol-4-yl)-N-methylbenzenesulfonamide] | yes | 0.005 µM
26 | Cc1cc(-c2csc(Nc3ccc(CS(C)(=O)=O)cc3)n2)ccn1 [SR-35786, 4-(2-Methylpyridin-4-yl)-N-(4-((methylsulfonyl)methyl)phenyl)thiazol-2-amine] | yes | 0.014 µM
27 | COc1cccc(-c2csc(Nc3ccc(S(C)(=O)=O)cc3)n2)c1 [SR-35788, 4-(3-Methoxyphenyl)-N-(4-(methylsulfonyl)phenyl)thiazol-2-amine] | yes | 0.17 µM
28 | CC(C)c1ccc(-c2csc(Nc3ccc(S(C)(=O)=O)cc3)n2)cc1 [SR-35789, 4-(4-Isopropylphenyl)-N-(4-(methylsulfonyl)phenyl)thiazol-2-amine] | yes | > 0.5 µM
